By bioavailability is commonly meant dose-corrected exposure relative to a reference, in per cent. One may read the pEC50 as the EC50 on a negative log10 scale, so that one unit is a factor of ten.

From US8383608B2, “Imidazolidine compounds as androgen receptor modulators” (Dart Therapeutics LLC, priority 2008, dated 2013) come the findings set out here.

pEC50: −log10 of the molar value. Like-named read-outs stand apart in the source and are kept apart here. Where only a bound is given, the exact number is not on record here.

Series [1] deals with T1, human androgen receptor (hAR) (Homo sapiens, UniProt P10275).
T1 construct: expressed in transfected cells
T1 sequence (P10275 1-920): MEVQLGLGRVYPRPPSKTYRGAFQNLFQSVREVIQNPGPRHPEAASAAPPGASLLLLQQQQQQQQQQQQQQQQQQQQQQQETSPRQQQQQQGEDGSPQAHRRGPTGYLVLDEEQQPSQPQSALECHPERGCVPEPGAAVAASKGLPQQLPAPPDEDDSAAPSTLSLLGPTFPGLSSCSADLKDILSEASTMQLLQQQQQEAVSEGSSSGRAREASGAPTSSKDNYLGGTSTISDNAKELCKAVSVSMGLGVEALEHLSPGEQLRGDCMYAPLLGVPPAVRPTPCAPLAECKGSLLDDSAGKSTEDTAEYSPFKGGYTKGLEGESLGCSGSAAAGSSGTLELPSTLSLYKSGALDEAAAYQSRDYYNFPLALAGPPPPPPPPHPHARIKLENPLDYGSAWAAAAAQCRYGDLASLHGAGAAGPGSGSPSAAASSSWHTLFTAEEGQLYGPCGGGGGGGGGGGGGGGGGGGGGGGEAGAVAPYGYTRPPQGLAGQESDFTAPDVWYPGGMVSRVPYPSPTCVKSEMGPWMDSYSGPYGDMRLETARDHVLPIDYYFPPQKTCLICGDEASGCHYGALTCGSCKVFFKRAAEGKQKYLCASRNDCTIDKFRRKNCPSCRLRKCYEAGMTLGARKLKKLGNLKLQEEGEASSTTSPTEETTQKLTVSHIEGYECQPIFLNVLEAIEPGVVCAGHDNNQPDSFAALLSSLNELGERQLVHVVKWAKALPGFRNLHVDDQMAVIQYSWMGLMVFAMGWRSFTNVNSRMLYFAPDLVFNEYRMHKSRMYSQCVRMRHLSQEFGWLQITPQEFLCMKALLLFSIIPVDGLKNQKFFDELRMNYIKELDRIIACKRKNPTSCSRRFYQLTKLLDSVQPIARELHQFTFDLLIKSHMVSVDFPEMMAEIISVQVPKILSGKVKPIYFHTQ
Kind of series: Functional response (transactivation) test in HALP2 cells (HeLa stably expressing hAR and ARE-luciferase reporter). It counts as cell-based. Conditions: for Emax: HeLa, read-out: % effect relative to DHT (100%). An excerpt:
This test constitutes a method of identifying pure or partial agonists which mimic the effects of natural hormones, such as DHT (dihydrotestosterone) in the present case or, on the other hand, antagonists which inhibit them.
For this transactivation test, plasmids encoding a reporter gene and the human androgen receptor (hAR) are introduced together by transfection into the HeLa cell line. The reporter plasmid contains luciferase cDNA under the control of the AREs contained in the promoter sequences of the probasin gene (3xpbAREminicoll-luciferase/pGL3-puro). The expression of the reporter gene constitutes an indication of the transcriptional activity of hAR. It also encodes a protein allowing the cells expressing it to resist a treatment with puromycin. The plasmid encoding hAR contains the cDNA of hAR under the control of the Cytomegalovirus (CMV) promoter. It also encodes a protein allowing the cells expressing it to resist a treatment with neomycin. The treatment of cells with increasing amounts of potentially agonistic compounds will increase the expression of the reporter gene. To detect antagonists, on the other hand, increasing doses of test compounds are tested in the presence of […] of DHT. The expression of the reporter gene, which is constant for each dose of DHT, decreases when the concentration of the test compounds increases.
The functional response test is conducted on 96-well plates. The HALP2 cells are seeded (20,000 cells per well) in culture medium (DMEM with phenol red, 1% de Pen-Strep, 1% of non-essential amino acids, 10% of fetal bovine serum, 400 μg/mL Geneticin and 0.150 puromycin) on day 1. After 24 hours incubating at 37° C., 5% CO2, high humidity (day 2) the medium is removed and refreshed with test medium (DMEM without phenol red supplemented, 1% de Pen-Strep, 1% of non-essential amino acids and 5% of desteroidised foetal bovine serum). After another 24 hours incubating at 37° C., 5% CO2, high humidity (day 3), the medium is renewed once more before the phase of stimulation.
The cells are placed in contact with the compounds for 24 hours at 37° C., 5% CO2, high humidity. On day 4 the medium is then removed and the luciferase activity reading reagent is placed in contact with the cells in accordance with the manufacturer's instructions (SteadyLite, Perkin-Elmer). The luminescence produced is detected on an Envision reader (Perkin-Elmer). […]
The determination of the relative agonism/antagonism of a compound is obtained by comparing the maximal activation obtained with said compound and the activation obtained with DHT alone (100%).
For orientation: A reporter such as luciferase makes a cellular process visible.

The nature of series [2]: Determination of absolute bioavailability (restricted PK profile, oral and intravenous). It counts as in vivo. As to conditions: absolute bioavailability (F), male Sprague Dawley rats, oral 10 mg/kg AUC(0-6 h) vs intravenous 3 mg/kg AUC(0-3 h). The method, then:
To screen rapidly imidazolidines derivatives based on their absolute bioavailabity, restricted pharmacokinetic profile with only fours sampling time points after oral and intravenous route is investigated in Sprague Dawley rats as follows: each test compound is dosed orally (10 mg/kg) and intravenously (3 mg/kg) to groups of 3 male Sprague Dawley rats. Oral doses are administered as solution in EtOH/PEG400/H2O (1/79/20; v/v) by esophageal gavage (2 mg/mL; 5 mL/kg) and intravenous dose is given as solution in DMSO/PEG400/H2O (1/65/34; v/v) as a bolus in the tail vein (3 mg/mL; 1 mL/kg). Before oral dosing, animals are deprived of food (water ad libitum) for at least 16 hours before the start of the study and 6 hours after administration.
Blood is collected at the retro-orbital sinus into polypropylene tubes (Li-heparinate) at +4° C. at the following sampling-times: 0.083, 0.25, 1 and 3 h after intravenous injection and 0.25, 1, 3 and 6 hours after oral dosing. Three (3) animals are sampled per time-point; each animal being sampled four times. After centrifugation at 5000 rpm for 10 min at +4° C., plasma is collected into polypropylene tubes and kept frozen at −20° C. pending assays. Plasma samples are assayed by a LC-MS/MS method with a lower limit of quantification of 1 to 10 ng/mL depending on the compound (volume of plasma: 100 μL).
A LC-MS/MS method for quantification in heparinized plasma was developed for each test compound. Sample preparation consists of a precipitation of plasma proteins with methanol and filtration by centrifugation of supernatant on Captiva deep-well 96 0.2 μm filter plates. Water was added to methanol supernatant phase prior to analysis by liquid chromatography (Pursuit 5 C18 20×2.0 mm VARIAN, 2 μL loop, gradient Water/Methanol (90/10 to 0/100) over 1.7 min) with turboionspray tandem mass spectrometry (API4000) in negative mode using multiple reaction monitoring. The method includes 8 standard and 3 quality control levels with lower limit of quantification corresponding to first standard level.
Exposures are determined using a non compartmental model (WinNonLin 2.1) and the absolute bioavailability (F) is calculated as follows: [AUC(0-6 h) oral*3 mg/kg]/AUC(0-3 h) IV 10 mg/kg] and expressed in percentage.

In series [3] the test system is castrated immature young rats. The experiment in a line: Adapted model of Hershberger's test. It counts as in vivo, Sprague Dawley rats. As to conditions: Rattus norvegicus, po, 96 h, ORX control = 0%, SHAM control = 100%, per os daily for 4 days, dose tested 10 mg/kg. The method, then: The selective modulating activity of the androgen receptor is tested in a model of castrated immature young rats. This model, which is widely recognised for evaluating the anabolic effects of androgen compounds on the muscles and on the prostate, has been described by Hershberger et al. 1953 Proc. Soc. Expt. Biol. Med. 83:175.
The method is based on the measurement of the well-known effects of androgens on the growth of the muscles and the accessory male sex organs in animals, and also in men. The consequences of castration appear in the form of a rapid involution and atrophy of the prostate and the seminal vesicles and of the anus-lifting muscle (levator ani). This effect may be completely compensated by an exogeneous administration of androgen, in particular of testosterone. The model is thus used to determine the capacity of the tested molecules to maintain the weight of the accessory sex and muscle organs in immature castrated rats, and therefore their androgenic efficacy.
Immature young Sprague Dawley rats (4 to 5 weeks old) weighing approximately 140-160 g (Charles River, Les Oncins, FRANCE) are distributed randomly in various groups and are kept in an environment at 22±2° C. with an alternating day/night cycle of 12 hours and ad libitum access to food and drink.
On day 0 (seven days before commencement of the first treatment) the rats are weighed individually then anaesthetised with an intraperitoneal dose of Ketamine/xylazine (85/15 mg/kg, approximately 2 ml/kg). Each animal is then placed on a sterile field and the abdomen and the scrotum are disinfected with Betadine and 70% alcohol. In the case of the orchidectomised control animals (ORX), the testicles are removed via an incision in the middle of the scrotum. A sterile suture is then made to ligature the supra-testicular portion of the tissue prior to surgical section of each testicle. The groups of animals to be treated by the tested compounds are operated on in an identical manner. In the case of the intact control animals (SHAM), the testicles are similarly extracted and reintroduced delicately to their original location. The site of surgical intervention is then sutured using sterile suture thread, and the site is disinfected again by application of Betadine. Each animal is then kept under a sterile pad until it awoke, before being returned to its cage. The animals are kept in an environment at 22±2° C. with an alternating day/night cycle of 12 hours and ad libitum access to food and drink. The animals are treated with the molecules to be tested from post-surgery day 7 and until day 10 preceding sacrifice (day 11).
The rats are split into groups and treated daily from day 7 to day 10 under the conditions defined below: • 1. SHAM control group: Vehicle (PEG400/DMSO/water; 79/1/20) administered per os. • 2. ORX control group: Vehicle (PEG400/DMSO/water; 79/1/20) administered per os. • 3. Treated ORX group: The tested compounds are administered individually per os in suspension in the vehicle described above, in a dose of 10 mg/kg.
After treatment for 4 successive days, the animals are decapitated using a guillotine. The levator ani and the ventral prostate are removed and weighed individually. For comparing inter-experimental data, the weight of each organ is standardised and expressed in milligrammes per 100 g of the weight of the animal (W). For each organ, the average of the standardised weights of the ORX control group is fixed by definition at 0% and the average of the standardised weights of the SHAM control group is fixed by definition at 100%. The efficacy of each product is expressed as a percentage and calculated using the following formula: (Wtreated−WORX)/(WSHAM−WORX)×100
A subsequent ANOVA test is used for statistical analysis to identify the differences between groups.

Where [4] appears, read: maximal activation by the compound compared with DHT alone (100%), HALP2 cells.
The mark [5] stands for this setting: male, Sprague-Dawley, rat, plasma, po, 10 mg/kg, read-out: Bioavailability.
[6] abbreviates: agonism: concentration inducing 50% of the maximum agonistic effect of the tested compound, HALP2 cells, 24 hours, read-out: EC50.
Where [7] appears, read: levator ani weight, read-out: Anabolic activity %.
Where [8] appears, read: ventral prostate weight, read-out: Androgenic activity % (Prostate).

For `CC(O)C1(c2ccccc2)C(=O)N(c2ccc(C#N)c(C(F)(F)F)c2)C(=O)N1C` (single isomer, unassigned) [Example 5, 4-[2,5-Dioxo-4-(1-hydroxyethyl)-3-methyl-4-phenylimidazolidin-1-yl]-2-trifluoromethylbenzonitrile], the “% effect relative to DHT (100%)” value in series [1] (setting [4]) is listed as “§ (0-5%)”. In series [2], the bioavailability result is recorded as “### (>90%:)”.

Take `C#CCN1C(=O)N(c2ccc(C#N)c(C(F)(F)F)c2)C(=O)C1(CO)c1ccc(F)cc1` (stereo not drawn) [Example 8, 4-[2,5-Dioxo-4-(4-fluorophenyl)-4-hydroxymethyl-3-(2-propynyl)imidazolidin-1-yl]-2-trifluoromethylbenzonitrile]: in series [1], the pEC50 was 6.30 to 7.00 and the Emax is 6 to 20%. For the same molecule, the bioavailability in series [2] (setting [5]) is above 90%.

Turning to `C#CCN1C(=O)N(c2ccc(C#N)c(C(F)(F)F)c2)C(=O)C1(CO)c1ccccc1` (stereo not drawn) [Example 19], the Emax in series [1] (setting [4]) lay within 6 to 20%. Further, in series [1] (setting [6]), the pEC50 was 6.30 to 7.00. Besides, the response vs control in vivo at 10 mg/kg in series [3] (setting [7]) was in the range of 75 to 100%; in series [3] (setting [8]) it was 25 to 50%.

As for `CCC(O)C1(c2ccccc2)C(=O)N(c2ccc(C#N)c(C(F)(F)F)c2)C(=O)N1C` (single isomer, unassigned) [Example 3, 4-[2,5-Dioxo-4-(1-hydroxypropyl)-3-methyl-4-phenylimidazolidin-1-yl]-2-trifluoromethylbenzonitrile], the bioavailability in series [2] (setting [5]) fell in the range of 50 to 90%.

Take `CN1C(=O)N(c2ccc(Cl)c(Cl)c2)C(=O)C1(CO)c1ccccc1` (stereo not drawn) [Example 16, 1-(3,4-Dichlorophenyl)-4-hydroxymethyl-3-methyl-4-phenylimidazolidine-2,5-dione]: the Emax in series [1] (setting [4]) is 6 to 20%. Moreover, in series [1] (setting [6]), the pEC50 was 6.30 to 7.00. Also, the response vs control in vivo at 10 mg/kg in series [3] (setting [7]) is 75 to 100%; in series [3] (setting [8]) it was 0.5 to 25%.

Turning to `Cc1cccc(C2(CO)C(=O)N(c3ccc(C#N)c(C(F)(F)F)c3)C(=O)N2C)c1` (stereo not drawn) [Example 21, 4-[2,5-Dioxo-4-hydroxymethyl-3-methyl-4-(3-methylphenyl)imidazolidin-1-yl)-2-trifluoromethylbenzonitrile], the Emax in series [1] (setting [4]) lay within 6 to 20%. In series [1] (setting [6]), the pEC50 is 6.00 to 6.30. Besides, the response vs control in vivo at 10 mg/kg in series [3] (setting [7]) is 0.5 to 25%; in series [3] (setting [8]), 0%.
